Assay [1] concerns HIV. The settings on record: background, Ohrui et al.; cited from earlier work.
The test system of assay [2] is HCV replicon RNA replication (Renilla luciferase HCV replicon cells 2209-23). In words: Renilla luciferase assay (HCV replicon). Type of assay: cell-based. Conditions: 72 h; Huh7-derived replicon cell line 2209-23, three days incubation, luciferase readout. (Replicon systems follow genome replication, usually without infectious particles.)

In patent publication US7608599B2, “Antiviral phosphoramidates” (Roche Palo Alto LLC, priority 2005, dated 2009) one finds anti-HIV activity and IC50 data, which are given here for seven compounds.

The term IC50 denotes the midpoint of a concentration-inhibition curve.

For the compound `C#CC1(CO)OC(n2ccc(N)nc2=O)C(O)C1O` (stereo not shown) [Compound 6a, 4-Ethynyl-cytarabine], the anti-HIV activity result in assay [1] is reported as “good anti-HIV activity”.

In the case of `C#C[C@]1(CO)O[C@@H](n2cc(C)c(=O)[nH]c2=O)[C@@H](O)[C@@H]1O` [Compound 6b], in assay [1], the anti-HIV activity entry is “inactive”.

In turn, `C[C@H](NP(=O)(OC[C@@]1(N=[N+]=[N-])O[C@@H](n2ccc(=O)[nH]c2=O)[C@H](O)[C@@H]1O)Oc1ccccc1)C(=O)OCc1ccccc1` (stereo partly drawn) [Compound I-13, (S)-2-{[(2R,3S,4R,5R)-2-Azido-5-(2,4-dioxo-3,4-dihydro-2H-pyrimidin-1-yl)-3,4-dihydroxy-tetrahydro-furan-2-ylmethoxy]-phenoxy-phosphorylamino}-propionic acid benzyl ester] displayed an IC50 in assay [2] of 754 nM.

Compound `CC(C)OC(=O)[C@H](C)NP(=O)(OC[C@@]1(N=[N+]=[N-])O[C@@H](n2ccc(=O)[nH]c2=O)[C@H](O)[C@@H]1O)Oc1ccccc1` (stereo partly drawn) [Compound I-14, (S)-2-{[(2R,3S,4R,5R)-2-Azido-5-(2,4-dioxo-3,4-dihydro-2H-pyrimidin-1-yl)-3,4-dihydroxy-tetrahydro-furan-2-ylmethoxy]-phenoxy-phosphorylamino}-propionic acid isopropyl ester] gave an IC50 in assay [2] of 864 nM.

The compound `CCC(C)OC(=O)[C@H](C)NP(=O)(OC[C@@]1(N=[N+]=[N-])O[C@@H](n2ccc(N)nc2=O)[C@H](O)[C@@H]1O)Oc1ccccc1` (stereo partly drawn) [Compound I-28, (S)-2-{[(2R,3S,4R,5R)-5-(4-Amino-2-oxo-2H-pyrimidin-1-yl)-2-azido-3,4-dihydroxy-tetrahydro-furan-2-ylmethoxy]-phenoxy-phosphorylamino}-propionic acid sec-butyl ester] came in with a half-maximal inhibitory concentration (IC50) in assay [2] of 615 nM.

Regarding `CCOC(=O)[C@H](C)NP(=O)(OC[C@@]1(N=[N+]=[N-])O[C@@H](n2ccc(N)nc2=O)[C@H](O)[C@@H]1O)Oc1ccccc1` (stereo partly drawn) [Compound I-34, (S)-2-{[(2R,3S,4R,5R)-5-(4-Amino-2-oxo-2H-pyrimidin-1-yl)-2-azido-3,4-dihydroxy-tetrahydro-furan-2-ylmethoxy]-phenoxy-phosphorylamino}-propionic acid ethyl ester], the IC50 in assay [2] was 382 nM.

`CC(C)OC(=O)[C@H](C)NP(=O)(OC[C@@]1(N=[N+]=[N-])O[C@@H](n2ccc(N)nc2=O)[C@H](O)[C@@H]1O)Oc1ccccc1` (stereo partly drawn) [Compound I-35, (S)-2-{[(2R,3S,4R,5R)-5-(4-Amino-2-oxo-2H-pyrimidin-1-yl)-2-azido-3,4-dihydroxy-tetrahydro-furan-2-ylmethoxy]-phenoxy-phosphorylamino}-propionic acid isopropyl ester] came in with an IC50 in assay [2] of 991 nM.
